Data taken from paper PMC2763579 (Journal of medicinal chemistry, 2009).
“Also recorded” adds a separate entry of the source.

Tested on: heat induced HSP70 expression in Jurkat cells
Experiment: Inhibition of heat-induced HSP70 expression, Western blot
Assay type: cell-based, human
Conditions: pre-heat treatment 50 μg/ml

Q: With O=C(O)COc1cc(O)c2c(=O)c(O)c(-c3ccc(O)c(O)c3)oc2c1 [Compound D9] as the molecule, how does the “Inhibition of HSP70 induction (in words)” value read?
A: Its value is “does not inhibit HSP70; also recorded: showed no ability to inhibit HSP70 induction”.

Tested on: HSP27 phosphorylation at Ser78 in HeLa cells
Experiment: Drug-induced HSP27 Ser78 phosphorylation, Western blot
Assay type: cell-based, human
Conditions: absence of heat shock, 50 μg/ml 1 h

Q: COc1cc(-c2oc3cc(O)cc(O)c3c(=O)c2O)ccc1O [Compound D2] was tested. Which “Enhancement of HSP27 phosphorylation (in words)” value (from here on “Enhancement”) did it give?
A: The value was “did not activate HSP27 phosphorylation”.

Q: Which “Enhancement” value does the source give for COC(=O)COc1cc(-c2oc3cc(O)cc(O)c3c(=O)c2O)ccc1O [Compound D1] here?
A: Its value is “did not activate HSP27 phosphorylation”.

Q: COc1cc(O)c2c(=O)c(O)c(-c3ccc(O)c(O)c3)oc2c1 [Compound D7] was tested. Which “Enhancement” value did it give?
A: The value was “showed enhancement of HSP27 phosphorylation”.

Q: How did the “Enhancement” value turn out when COC(=O)COc1cc(O)c2c(=O)c(O)c(-c3ccc(O)c(O)c3)oc2c1 [Compound D10] was run?
A: The value was “showed enhancement of HSP27 phosphorylation”.

Q: For O=c1c(O)c(-c2ccc(O)c(O)c2)oc2cc(O)cc(O)c12 [Quercetin, reference compound], which “Enhancement” value is on record?
A: The value was “enhances HSP27 phosphorylation at Ser78”.
